# Experiments:
# [1] = Compound toxicity in the attachment assay, sister plate, XTT or MTS (Example 2); assay type: cell-based; details: human, HeLa CD4 LTR β-gal cells, read-out: Attachment Assay TC50
# Description: (§1) This assay detects compounds that block virus attachment using HeLa CD4 LTR β-gal cells. HeLa CD4 LTR β-gal cells were cultured with selection antibiotics. Twenty-four h prior to initiation of the assay, the cells were trypsinized, counted and plated in a 0.2 cm well in media without selection antibiotics. At 24 h media is removed and compound in media placed on the cells and incubated for 15 min at 37° C. A known titer of the IIIB strain of HIV-1 was then added to the wells and the incubation continued for 1 to 2 h. At the end of the incubation the wells were washed 2 times with media and the culture continued for 40 to 48 h. At termination of the assay, media is removed and β-galactosidase enzyme expression determined by chemiluminescence per manufacturer's instructions (Tropix Gal-screen, Bedford Mass.). Compound toxicity is monitored on a sister plate by XTT or MTS dye reduction. All determinations are performed in triplicate with serial_Log10 dilution of the test materials. The virus adsorption interval of 1 to 2 h was sufficiently short that AZT, which requires phosphorylation to achieve its active tri-phosphate form (AZT-TTP), is not active in this assay.
# HeLa CD4 LTR β-gal cells = assay: as above; assay type: cell-based
# Description: as §1
smiles,measurement,setting,value
"Cc1c(O)cc(C(C)(C)CCCC(C)C)cc1O [IMG510, 2-Methyl-5-(1,1,5-trimethylhexyl)resorcinol]",CC50,[1],> 10 µM
"Cc1ccc2c(c1)-c1c(O)cc(C(C)(C)CCCC(C)C)cc1OC2(C)C [IMG511, 3-Norpentyl-3-(1,1,5-trimethylhexyl)cannabinol]",Attachment Assay TC50,HeLa CD4 LTR β-gal cells,>67 µM
"CC1=CCC2C(C1)c1c(O)cc(C(C)(C)CCCC(C)C)cc1OC2(C)C (stereo not drawn) [IMG509, 3-Norpentyl-3-(1,1,5-trimethylhexyl)-Δ8-tetrahydrocannabinol]",CC50,[1],> 10 µM

# Source: patent US20030232101A1, “Topical formulations of resorcinols and cannibinoids and methods of use” (Immugen Pharmaceuticals, Inc., priority 2002, published 2003)
